According to ChEMBL document CHEMBL4411340, “Tuning Nuclear Receptor Selectivity of Wy14,643 towards Selective Retinoid X Receptor Modulation” (J Med Chem, 2019):
Converted amounts (≈) assume the structure as drawn.

What was measured:
[1] = Metabolic stability in Sprague-Dawley rat liver microsomes assessed as remaining parent compound level at 10 uM preincubated for 5 mins with NADPH generating system followed by liver microsomes addition and measured after 60 mins by HPLC analysis; assay type: ADME, Microsome; details: read-out: Stability
[2] = Aqueous solubility of the compound in distilled water after 24 hrs by HPLC analysis; assay type: physicochemical; details: for solubility: buffer, 24 h; for solubility at 24 h: distilled water
[3] = Log D, lipophilicity of the compound by HPLC analysis; assay type: physicochemical
[4] = Drug uptake in C57BL6/JRj mouse brain at 10 mg/kg, po administered as single dose and measured after 2 hrs by LS-MS analysis; assay type: ADME, organism-based; details: read-out: Drug uptake
[5] = Ratio of drug uptake in C57BL6/JRj mouse brain to plasma at 10 mg/kg, po administered as single dose and measured after 2 hrs by LS-MS analysis; assay type: ADME, organism-based
[6] = Drug uptake in C57BL6/JRj mouse liver at 10 mg/kg, po administered as single dose and measured after 2 hrs by LS-MS analysis; assay type: ADME, organism-based; details: in vivo
[7] = Drug uptake in C57BL6/JRj mouse plasma at 10 mg/kg, po administered as single dose and measured after 2 hrs by LS-MS analysis; assay type: ADME, organism-based; details: in vivo
[8] = Half life in C57BL6/JRj mouse at 10 mg/kg, po administered as single dose and measured after 2 hrs by LS-MS analysis; assay type: ADME, organism-based; details: in vivo

With O=C(O)CSc1nc(Cl)cc(Nc2cccc3c2CCCC3)n1 the remaining at 1 h, 10 µM [1] was over 50% and the solubility [2] was “Soluble”.

Cc1cccc(Nc2cc(Cl)nc(SCC(=O)O)n2)c1C [PIRINIXIC ACID] showed a remaining at 1 h, 10 µM [1] of over 50%, a logD [3] of 1.63 and a solubility at 24 h [2] of 48.6 µg/mL (≈ 150 µM).

Work on CCCCC(Sc1nc(Cl)cc(Nc2cccc(C)c2C)n1)C(=O)O (stereo not given) yielded a remaining at 1 h, 10 µM [1] of over 50%.

Work on C=C(c1ccc(C(=O)O)cc1)c1cc2c(cc1C)C(C)(C)CCC2(C)C [BEXAROTENE] yielded a logD [3] of 4.74 and a solubility at 24 h [2] of 0.3 µg/mL (≈ 0.861 µM).

For CN(c1cc(C(F)(F)F)nc(OCCC(=O)O)n1)c1cccc2c1CCC2, the concentration at 2 h [4] was 275 ng/g, the BPR [5] was 1.5% and the Drug uptake [6] was “Active”. The Drug uptake [7] was “Active”, the half-life [8] was 4.2 h and the remaining at 1 h, 10 µM [1] was over 50%. The solubility [2] was “Soluble”.
